# Results published in the supplement of paper PMC10307832.
# Key:
# Test in all cases: relative viability (nuclei count vs DMSO), 5 days (fraction); higher = more cells survive
# [1] = test system: ABC-1
# Procedure, shortened: (§1)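 Cells from lung cancer lines were seeded into 1536-well plates and, one day later, dosed by pin tool. Treatments were either a single drug or a fixed dose of an anchor drug with five library-drug doses (not always all listed) in √10 steps. After 5 days, nuclei were stained in a one-step fixation (final 0.05% Triton X-100, 1% formaldehyde, 1 ug/ml Hoechst) and counted on 4× images, and relative viability is the treated-to-vehicle nuclei ratio, as the median of duplicate plates.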
# [2] = test system: CAL-12T
# Procedure, shortened: as §1
# [3] = test system: COR-L 105
# Procedure, shortened: as §1
# [4] = test system: ChaGo-K-1
# Procedure, shortened: as §1
# [5] = test system: EMC-BAC-2
# Procedure, shortened: as §1
# [6] = test system: EPLC-272H
# Procedure, shortened: as §1
# [7] = test system: HCC-15
# Procedure, shortened: as §1
# [8] = test system: HCC-78
# Procedure, shortened: as §1
# [9] = test system: HOP-62
# Procedure, shortened: as §1
# [10] = test system: LXF-289
# Procedure, shortened: as §1
# [11] = test system: NCI-H1666
# Procedure, shortened: as §1
# [12] = test system: NCI-H1755
# Procedure, shortened: as §1
# [13] = test system: NCI-H1915
# Procedure, shortened: as §1
# [14] = test system: NCI-H1975
# Procedure, shortened: as §1
# [15] = test system: NCI-H2023
# Procedure, shortened: as §1
# [16] = test system: NCI-H2085
# Procedure, shortened: as §1
# [17] = test system: NCI-H2126
# Procedure, shortened: as §1
# [18] = test system: NCI-H3122
# Procedure, shortened: as §1
# [19] = test system: NCI-H322M
# Procedure, shortened: as §1
# [20] = test system: NCI-H358
# Procedure, shortened: as §1
# [21] = test system: NCI-H441
# Procedure, shortened: as §1
# [22] = test system: UMC-11
# Procedure, shortened: as §1
smiles,measurement,setting,value
Cc1sc2c(c1C)C(c1ccc(Cl)cc1)=N[C@@H](CC(=O)OC(C)(C)C)c1nnc(C)n1-2 [JQ1] + Cc1nc(Nc2ncc(C(=O)Nc3c(C)cccc3Cl)s2)cc(N2CCN(CCO)CC2)n1 [Dasatinib] (partner 0.075 µM),relative viability,[1]; first compound 0.04 µM,0.583
same,relative viability,[1]; first compound 0.1265 µM,0.413
same,relative viability,[1]; first compound 0.4 µM,0.417
same,relative viability,[1]; first compound 1.265 µM,0.429
same,relative viability,[1]; first compound 4 µM,0.333
same,relative viability,[2]; first compound 0.04 µM,0.427
same,relative viability,[2]; first compound 0.1265 µM,0.332
same,relative viability,[2]; first compound 0.4 µM,0.228
same,relative viability,[2]; first compound 1.265 µM,0.144
same,relative viability,[2]; first compound 4 µM,0.213
same,relative viability,[3]; first compound 0.04 µM,0.297
same,relative viability,[3]; first compound 0.1265 µM,0.186
same,relative viability,[3]; first compound 0.4 µM,0.156
same,relative viability,[3]; first compound 1.265 µM,0.119
same,relative viability,[3]; first compound 4 µM,0.132
same,relative viability,[4]; first compound 0.04 µM,0.663
same,relative viability,[4]; first compound 0.1265 µM,0.462
same,relative viability,[4]; first compound 0.4 µM,0.44
same,relative viability,[4]; first compound 1.265 µM,0.485
same,relative viability,[4]; first compound 4 µM,0.397
same,relative viability,[5]; first compound 0.04 µM,0.33
same,relative viability,[5]; first compound 0.1265 µM,0.235
same,relative viability,[5]; first compound 0.4 µM,0.254
same,relative viability,[5]; first compound 1.265 µM,0.205
same,relative viability,[5]; first compound 4 µM,0.371
same,relative viability,[6]; first compound 0.04 µM,0.352
same,relative viability,[6]; first compound 0.1265 µM,0.382
same,relative viability,[6]; first compound 0.4 µM,0.358
same,relative viability,[6]; first compound 1.265 µM,0.175
same,relative viability,[6]; first compound 4 µM,0.204
same,relative viability,[7]; first compound 0.04 µM,0.524
same,relative viability,[7]; first compound 0.4 µM,0.5
same,relative viability,[7]; first compound 1.265 µM,0.339
same,relative viability,[7]; first compound 4 µM,0.227
same,relative viability,[8]; first compound 0.04 µM,0.364
same,relative viability,[8]; first compound 0.1265 µM,0.419
same,relative viability,[8]; first compound 0.4 µM,0.366
same,relative viability,[8]; first compound 1.265 µM,0.319
same,relative viability,[8]; first compound 4 µM,0.248
same,relative viability,[9]; first compound 0.04 µM,0.559
same,relative viability,[9]; first compound 0.1265 µM,0.31
same,relative viability,[9]; first compound 0.4 µM,0.355
same,relative viability,[9]; first compound 1.265 µM,0.158
same,relative viability,[9]; first compound 4 µM,0.116
same,relative viability,[10]; first compound 0.04 µM,0.283
same,relative viability,[10]; first compound 0.1265 µM,0.117
same,relative viability,[10]; first compound 0.4 µM,0.212
same,relative viability,[10]; first compound 1.265 µM,0.156
same,relative viability,[10]; first compound 4 µM,0.152
same,relative viability,[11]; first compound 0.04 µM,0.791
same,relative viability,[11]; first compound 0.1265 µM,0.593
same,relative viability,[11]; first compound 0.4 µM,0.587
same,relative viability,[11]; first compound 1.265 µM,0.554
same,relative viability,[11]; first compound 4 µM,0.504
same,relative viability,[12]; first compound 0.04 µM,0.421
same,relative viability,[12]; first compound 0.1265 µM,0.277
same,relative viability,[12]; first compound 0.4 µM,0.373
same,relative viability,[12]; first compound 1.265 µM,0.343
same,relative viability,[12]; first compound 4 µM,0.2
same,relative viability,[13]; first compound 0.04 µM,0.281
same,relative viability,[13]; first compound 0.1265 µM,0.303
same,relative viability,[13]; first compound 0.4 µM,0.317
same,relative viability,[13]; first compound 1.265 µM,0.249
same,relative viability,[13]; first compound 4 µM,0.191
same,relative viability,[14]; first compound 0.04 µM,0.414
same,relative viability,[14]; first compound 0.1265 µM,0.316
same,relative viability,[14]; first compound 0.4 µM,0.305
same,relative viability,[14]; first compound 1.265 µM,0.227
same,relative viability,[14]; first compound 4 µM,0.241
same,relative viability,[15]; first compound 0.04 µM,0.5
same,relative viability,[15]; first compound 0.1265 µM,0.339
same,relative viability,[15]; first compound 0.4 µM,0.272
same,relative viability,[15]; first compound 1.265 µM,0.178
same,relative viability,[15]; first compound 4 µM,0.15
same,relative viability,[16]; first compound 0.04 µM,0.257
same,relative viability,[16]; first compound 0.1265 µM,0.275
same,relative viability,[16]; first compound 0.4 µM,0.189
same,relative viability,[16]; first compound 1.265 µM,0.223
same,relative viability,[16]; first compound 4 µM,0.176
same,relative viability,[17]; first compound 0.04 µM,0.651
same,relative viability,[17]; first compound 0.1265 µM,0.575
same,relative viability,[17]; first compound 0.4 µM,0.431
same,relative viability,[17]; first compound 1.265 µM,0.433
same,relative viability,[17]; first compound 4 µM,0.35
same,relative viability,[18]; first compound 0.04 µM,0.777
same,relative viability,[18]; first compound 0.1265 µM,0.551
same,relative viability,[18]; first compound 0.4 µM,0.582
same,relative viability,[18]; first compound 1.265 µM,0.463
same,relative viability,[18]; first compound 4 µM,0.209
same,relative viability,[19]; first compound 0.04 µM,0.234
same,relative viability,[19]; first compound 0.1265 µM,0.245
same,relative viability,[19]; first compound 0.4 µM,0.24
same,relative viability,[19]; first compound 1.265 µM,0.225
same,relative viability,[19]; first compound 4 µM,0.239
same,relative viability,[20]; first compound 0.04 µM,0.182
same,relative viability,[20]; first compound 0.1265 µM,0.262
same,relative viability,[20]; first compound 0.4 µM,0.279
same,relative viability,[20]; first compound 1.265 µM,0.183
same,relative viability,[20]; first compound 4 µM,0.209
same,relative viability,[21]; first compound 0.04 µM,0.558
same,relative viability,[21]; first compound 0.1265 µM,0.572
same,relative viability,[21]; first compound 0.4 µM,0.634
same,relative viability,[21]; first compound 1.265 µM,0.273
same,relative viability,[21]; first compound 4 µM,0.209
same,relative viability,[22]; first compound 0.04 µM,0.501
same,relative viability,[22]; first compound 0.1265 µM,0.43
same,relative viability,[22]; first compound 0.4 µM,0.321
same,relative viability,[22]; first compound 1.265 µM,0.239
same,relative viability,[22]; first compound 4 µM,0.221
